Our source for the GI50 and TGI values is PubChem BioAssay (NCI).

Common to all, as to assay: DTP human tumour cell line panel, 48 h
The test system of assay [1] is NCI-H23 lung.
For assay [2], the system named is A498 renal.
For assay [3], the system named is SK-MEL-2 melanoma.
In assay [4] the test system is TK-10 renal.
For assay [5], the system named is HT29 colon.
For assay [6], the system named is IGROV1 ovarian.
Assay [7] relates to UACC-257 melanoma.
For assay [8], the system named is OVCAR-8 ovarian.
Assay [9] deals with SW-620 colon.
Assay [10] deals with SK-MEL-5 melanoma.

Each structure is given as a SMILES string. Values joined by “and” are separate entries in the source; they are usually repeats but may differ in a detail not shown here. Equal values may be shown once.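 Cells were grown in 96-well plates and exposed to each compound for 48 hours at five concentrations; endpoints were interpolated linearly between bracketing concentrations, or set to the highest concentration if not reached. At the GI50, growth is halved. TGI is the concentration that stops growth completely.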 Where only a bound is given, the exact number is not on record here.

Broadly, the GI50 is the concentration giving 50% growth inhibition. By TGI is commonly meant the concentration at which net growth stops. Higher therefore signals less potent growth arrest. Turning to `OC(CNc1ccnc2cc(Cl)ccc12)CNC1CCCCC1` (stereo not given), the GI50 in assay [1] is 15.9 µM; in assay [2] it was 1.52 µM; in assay [3], 2.28 µM; in assay [4], 3.61 µM; in assay [5] it was 3.26 µM; in assay [6], 10.1 µM. For the same compound, the GI50 in assay [7] is 1.78 µM; in assay [8] it was 5.07 µM; in assay [9] it was 4.79 µM; in [10], 1.77 µM. The TGI in [1] amounted to 41 µM; in assay [2], 8.16 µM; in assay [3], 4.86 µM; in assay [4] it was 13.6 µM; in [5] it was 12.2 µM; in assay [6], 24.4 µM. The TGI in assay [7] was 3.33 µM; in assay [8], 19.9 µM; in assay [9] it was 18.3 µM; in assay [10], 3.34 µM.
As for `NCCCCN(Cc1nc2ccccc2[nH]1)[C@H]1CCCc2cccnc21`, the GI50 in assay [1] is 20.4 µM; in [2], 7.81 µM; in [3], 16.7 µM; in assay [4], 25.3 µM; in assay [5] it was 6.29 µM; in assay [6] it was 12.6 µM. The GI50 was 15.3 µM in [7], 20 µM in assay [8], 12.6 µM in assay [9] and 14.5 µM in assay [10]. Moreover, the TGI was more than 100 µM in assay [1]; more than 51.8 µM in assay [2]; 45.1 µM in assay [3]; more than 75.3 µM in [4]; 34.1 µM in assay [5]; more than 100 µM in assay [6]. For the same compound, the TGI in assay [7] was 31.4 µM; in [8] it was more than 100 µM; in assay [9], more than 100 µM; in assay [10], 27.8 µM.
As for `O=C(N/N=C\c1ccc(N(CCCl)CCCl)cc1Cl)c1cccnc1`, the GI50 in assay [1] is 9.59 µM; in assay [2], 0.0664 µM; in assay [3], 14.3 µM; in assay [4] it was 0.991 µM; in [5], 20.2 µM; in [6] it was 1.5 µM. For the same compound, the GI50 in assay [7] is 1.08 µM; in assay [8], 21.7 µM; in assay [9] it was 19.2 µM; in assay [10], 13.3 µM. The TGI was 54.9 µM in [1]; 0.179 µM in assay [2]; 53.3 µM in assay [3]; 7.84 µM in assay [4]; more than 88.4 µM in [5]; 24.5 µM in assay [6]. Besides, the TGI in assay [7] was 3.48 µM; in [8], more than 88.8 µM; in assay [9], more than 100 µM; in [10], 34.8 µM.
As to `Oc1c(N=Nc2ccccc2)c2ccccc2c2ccc3ccccc3c12`, the TGI in assay [1], in assay [2], in assay [3], in assay [4], in [5] and in assay [6] was more than 100 µM throughout. In addition, the TGI in [7], in assay [8], in assay [9] and in assay [10] was more than 100 µM each time.
On to `COc1cc(/C=C2/C(=O)NC(Cc3cc(OC)c(OC)c(C)c3OC)C(=O)N2Cc2ccccc2)c(OC)c(C)c1OC` (stereo not given), for which the TGI was more than 100 µM in [1]; more than 100 µM in [2]; 66.8 µM in assay [3]; more than 100 µM in [4]; more than 100 µM in [5]; more than 100 µM in assay [6]. Moreover, the TGI in [7], in [8], in assay [9] and in [10] was more than 100 µM in each case.
Consider `CNc1nc(N(C)C)nc(N(C)C)n1`, for which the GI50 in [1] is > 100 µM and 650 µM; in assay [2] it was > 100 µM and 1300 µM; in assay [3] it was > 100 µM and 2150 µM; in assay [4], > 100 µM and 2270 µM; in [5], > 100 µM and 518 µM; in assay [6], > 100 µM and 1100 µM. Further, the GI50 in assay [7] was > 100 µM and 1640 µM; in assay [8], > 100 µM and 1780 µM; in assay [9], > 100 µM and 1870 µM; in assay [10], > 100 µM and 1130 µM. Also, the TGI is > 100 µM and 1830 µM in [1]; > 100 µM and 2970 µM in assay [2]; > 100 µM and 4820 µM in [3]; > 100 µM and 4960 µM in [4]; > 100 µM and 3650 µM in assay [5]; > 100 µM and 2640 µM in [6]. The TGI in [7] was > 100 µM and 3580 µM; in assay [8], > 100 µM and 2950 µM; in assay [9] it was > 100 µM and 4030 µM; in [10], > 100 µM and 2840 µM.
In the case of `CCOC1C=CCCO1` (stereo not given), the TGI in assay [1], in assay [2], in assay [3], in assay [4], in [5] and in assay [6] was more than 100 µM throughout. The TGI in assay [7], in [8], in [9] and in assay [10] was more than 100 µM throughout.
For `C=C1C(=O)O[C@H]2[C@H]1CC/C(CNS(=O)(=O)c1cccc3ccccc13)=C\CC[C@@]1(C)O[C@@H]21`, the GI50 is 2.48 µM in assay [1]; 4.85 µM in assay [2]; 5.18 µM in assay [3]; 1.48 µM in assay [4]; 1.85 µM in assay [5]; 1.38 µM in [6]. Besides, the GI50 in [7] is 1.64 µM; in assay [8] it was 2.52 µM; in assay [9], 0.713 µM; in assay [10], 1.95 µM. Moreover, the TGI in [1] worked out at 9.12 µM; in assay [2] it was 17.2 µM; in [3], 18.3 µM; in [4], 3.08 µM; in assay [5], 3.86 µM; in assay [6], 3.4 µM. Further, the TGI in [7] is 3.89 µM; in [8], 9.16 µM; in assay [9], 2.26 µM; in assay [10], 3.98 µM.
As to `C/C(=N\O)C(CN1CCCCC1)C(c1ccccc1)c1c(O)c2ccccc2oc1=O` (stereo not given), the TGI in [1], in [2], in assay [3], in assay [4], in assay [5] and in assay [6] was more than 100 µM throughout. Further, the TGI in assay [7], in assay [8], in assay [9] and in assay [10] was more than 100 µM each time.
As for `OC(CNC1CCCC1)Cn1c2ccccc2c2ccccc21` (stereo not given), the GI50 in assay [1] is 28.4 µM; in [2] it was 10.7 µM; in [3], 25.1 µM; in assay [4], 27.5 µM; in [5], more than 100 µM; in assay [6], 72.9 µM. The GI50 was more than 100 µM in assay [7], 27.6 µM in [8], more than 100 µM in [9] and more than 100 µM in assay [10]. The TGI in assay [1] is 83.7 µM; in assay [2], 47.7 µM; in assay [3], 68.6 µM; in assay [4], more than 100 µM; in [5] it was more than 100 µM; in [6] it was more than 100 µM. Besides, the TGI in assay [7], in assay [8], in [9] and in [10] was more than 100 µM each time.
For the compound `O=P1(O)c2ccccc2Nc2cc(C(F)(F)F)ccc21`, the TGI in [1], in [2], in assay [3], in assay [4], in assay [5] and in [6] was more than 100 µM throughout. The TGI in assay [7], in assay [8], in [9] and in assay [10] was more than 100 µM in each case.
In the case of `COc1ccc2c(c1)OC(N)=C(C#N)C2c1ccc(F)cc1` (stereo not given), the GI50 is 4.03 µM in assay [1]; 2.81 µM in assay [2]; 0.633 µM in [3]; 5.83 µM in [4]; 0.625 µM in assay [5]; 2.38 µM in assay [6]. Besides, the GI50 was 24.5 µM in assay [7], 4.49 µM in [8], 0.533 µM in assay [9] and 2.49 µM in assay [10]. For the same compound, the TGI in assay [1] is more than 100 µM; in [2] it was 63.4 µM; in [3], more than 100 µM; in assay [4], more than 100 µM; in [5] it was 13.5 µM; in assay [6] it was more than 100 µM. Further, the TGI in [7] was more than 100 µM; in assay [8], more than 100 µM; in [9] it was more than 100 µM; in [10], 18.5 µM.
With `CCOc1ccccc1NC(=O)C1=C(C)NC(C)=C(C(=O)Nc2ccccc2OCC)C1c1ccc(NC(C)=O)cc1`, the TGI was more than 100 µM in assay [1]; 88.9 µM in assay [2]; 58.6 µM in assay [3]; more than 100 µM in assay [4]; more than 100 µM in [5]; more than 100 µM in assay [6]. Further, the concentration for total growth inhibition (TGI) in [7], in [8], in assay [9] and in assay [10] was more than 100 µM throughout.
`O=Cc1ccc(O)c2ncccc12`: the GI50 in assay [1] is 3.42 µM; in assay [2], 25.4 µM; in assay [3], 25.8 µM; in assay [4], 17.4 µM; in [5], 7.46 µM; in assay [6], 3.32 µM. Besides, the GI50 in assay [7] was 3.45 µM; in assay [8] it was 3.28 µM; in assay [9] it was 3.91 µM; in assay [10], 2.4 µM. In addition, the TGI is more than 55.8 µM in [1]; more than 63.9 µM in assay [2]; more than 96 µM in assay [3]; 52.5 µM in [4]; 34.7 µM in [5]; 16.8 µM in [6]. Also, the TGI in assay [7] is more than 53.1 µM; in assay [8], more than 100 µM; in [9], 16.6 µM; in [10] it was 9.45 µM.
In the case of `Cc1ccc(N2C(=O)/C(=C/c3ccc(N(CCC#N)CCC#N)cc3C)N=C2c2cc([N+](=O)[O-])ccc2Cl)cc1`, the TGI in assay [1], in assay [2], in [3], in assay [4], in assay [5] and in [6] was more than 100 µM throughout. Also, the TGI in assay [7], in assay [8], in assay [9] and in assay [10] was more than 100 µM in each case.
With `C[CH2][Sn]([CH2]C)([O]C(=O)c1cccc(F)c1)[O][Sn]([CH2]C)([CH2]C)[O]C(=O)c1cccc(F)c1`, the GI50 in [1] is 16.6 µM; in [2], 16.5 µM; in assay [3], 16.4 µM; in [4], 19.6 µM; in assay [5], 35.4 µM; in assay [6], more than 100 µM. Also, the GI50 in assay [7] is 16.8 µM; in assay [8] it was 17.5 µM; in assay [9] it was 17.2 µM; in assay [10], 31.7 µM. Also, the TGI in [1] was 30.8 µM; in [2], 30.2 µM; in assay [3], 30.3 µM; in assay [4] it was 33.8 µM; in assay [5], more than 100 µM; in assay [6] it was more than 100 µM. The TGI in assay [7] is 30.9 µM; in [8], 32.3 µM; in assay [9], 30.9 µM; in assay [10], more than 100 µM.
With `CCCN(CCC)C(=O)[C@H](CC)[C@@H]1CC[C@@H](C)[C@@H]([C@H](C)[C@@H](O)[C@@H](C)C(=O)[C@H](CC)C2O[C@]3(C=C[C@@H](O)[C@]4(CC[C@@](C)([C@H]5CC[C@](O)(CC)[C@H](C)O5)O4)O3)[C@H](C)C[C@@H]2C)O1` (stereo not given in full), the GI50 in assay [1] is 2.52 µM; in [2] it was 2.13 µM; in assay [3], 2.43 µM; in assay [4], 3.3 µM; in [5], 3.1 µM; in assay [6] it was 2.59 µM. The GI50 in [7] was 2.84 µM; in assay [8], 3.5 µM; in assay [9], 3.23 µM; in assay [10], 1.73 µM. Besides, the TGI in [1] turned out to be 7.01 µM; in assay [2] it was 5.85 µM; in assay [3] it was 6.63 µM; in assay [4], 68.3 µM; in [5], 12.7 µM; in assay [6] it was 10.5 µM. For the same compound, the TGI in [7] was found to be 9.83 µM; in assay [8], 24.6 µM; in [9], 10.6 µM; in [10], 3.16 µM.
